Columns and labels:
CD29+CD73+ MSCs = assay: Inhibition curve on hESC-derived MSCs; format: cell-based, human; conditions: cell survival rate, 4 days, n=3
Description: (§1) hESCs-derived INS^+ cells, MSCs[43], neurons, and hepatocytes[44] were derived based on the reported protocols and re-plated on 96-well plates with Accutase digestion. Cardiomyocytes (CMs) were differentiated from H9-MYH6: mCherry reporter line, based on the reported protocol. After overnight incubation, cells were treated with DMSO or different doses of hit compounds for 4 days. After fixation, the cells were stained with markers for each cell type. DAPI was used to stain cell nuclei. Plates were analyzed by ImageXpress^MICRO Automated High-Content Analysis System.
Supplementary Figure 4. Assessment of the toxic effect of propargite on different type […]
(a) Flow cytometry char acterization of CD29+ and CD73+ mesenchymal stem cells (MSCs) derived from H1 hESCs. (b-c) microscope image (b) and flow cytometry (c) characterization of cardiomyocytes expressing MYH6+ derived from a MYH6:mCherry reporter hESC line. (d-e) Immunocytochemistry characterization of MAP2+/TUJ1+ and HuC/D+/MAP2+ neurons (d) and A1AT+/ASGPR1+ hepatocytes (e) derived from H1 hESCs. All the cells were counterstained by DAPI (blue). Scale bars, 100 µm. (f) Inhibition curve of propargite on pancreatic β-like cells, MSCs, cardiomyocytes, neurons, and hepatocytes derived from hESCs, and BJ-fibroblasts (n=3). Values presented as mean±S.D. […]

mDA neurons = assay: Survival of hESC-derived midbrain dopamine neurons; format: cell-based, human
Description: Scale bars, 50 μm. b Relative cell survival rate of cortical- and mDA-neurons treated with DMSO or different doses of propargite. […] White arrows indicate propargite-treated mDA cells (TH; red) co-stained with the DNA damage marker (rH2AX; green), and all cells were counterstained with DAPI (blue). […] Values presented as mean ± S.D. p-value was calculated by unpaired two-tailed Student’s t-test were *p < 0.05, **p < 0.01. n.s. indicates a non-significant difference.
Cortical and mDA differentiation from hESC were done with similar protocols those published by our lab previously[36],[37].

EndoC-βH1-Luc cells = assay: Humanized NSG mice transplanted with EndoC-βH1-Luc cells; format: in vivo, human; conditions: 12 mg/kg
Description: LentiLuc-blast plasmid was constructed based on the LentiCas9-blast vector (Addgene, 52926). The luciferase gene was driven by a constitutively active EFS promoter. EndoC-βH1 cells were infected with the lentivirus followed by 4 days selection with 20 μg/ml blasticidin to create EndoC-βH1-Luc cells. Adult 6–8 week old female NSG immunodeficient mice (Jackson Laboratory) were transplanted with 5 × 10^5 EndoC-βH1-Luc cells to create a humanized mouse model. Baseline luminescent levels were obtained 5 days after transplantation. 12 mg/kg propargite or vehicle were then administrated for 5 days via intraperitoneal injection (the starting day referred to as day 0). In vivo imaging was performed on day 1, 3, and 5 with an Xtreme Optical and X-ray small animal imaging system. During the imaging, isoflurane was used for anesthesia. 2 mg/150 µl/25 g body weight luciferin potassium salt (Regis, 360223) was applied to each mouse. To generate EndoC-βH1-Luc cells carrying sgGSTT1 or sgGFP, EndoC-βH1-Luc cells were infected with the lentivirus carrying Cas9 and sgRNAs (sgGSTT1 or sgGFP), and purified with 2 days selection using 1 μg/ml puromycin. Adult 6–8-week-old female NSG-immunodeficient mice (Jackson Laboratory) were transplanted with 5 × 10^5 EndoC-βH1-Luc cells carrying sgGSTT1 or sgGFP (control). 12 mg/kg propargite or vehicle were administrated for 3 days via intraperitoneal injection, mice were then sacrificed at day 3. The xenografts were embedded in OCT. The tissue was then sectioned at 5 μm to detect cell death with TUNEL assays (In Situ Cell Death Detection Kit, TMR red, Sigma, 12156792910) and for immunohistochemistry staining analysis of β-cell marker INS to measure cell death rate in EndoC-βH1-Luc cells carrying sgGSTT1 or sgGFP.

GSTT1-/- INS+ cells = assay: Inhibition curve on INS+ cells derived from GSTT1-/- H1 hESCs; format: cell-based, human; conditions: H1 hESC-derived, n = 3; read-out: IC50 for GSTT1-/--1 INS+ cells
Description: as §1
CRISPR sgRNA sequences were designed using the web resources available at http://www.genome-engineering.org/. The target sequences are listed in Supplementary Table 2. Each target sequence was cloned into the pX330-U6-Chimeric_BB-CBh-hSpCas9 vector (Addgene plasmid #42230) to make the gene targeting constructs. To knockout the target genes, two sgRNAs were validated using the surveyor assay in 293T cells, and we chose 1 sgRNA-construct plasmid for further experiments. After validation, H1 or INS^GFP/W HES3 cells were dissociated using Accutase (STEM CELL) and electroporated (8 × 10^5 cells per sample) with 4 μg sgRNA-construct plasmids using Human Stem Cell Nucleofector^TM solution (Lonza) following manufacturer’s instructions. […] A portion of the cells was analyzed by DNA sequencing. […]

“2-(4-tert-butylphenoxy)-cyclohexyl prop-2-yne-1-sulfonate [propargite]” was tested, and the IC50 (CD29+CD73+ MSCs) was 5.85 µM, the “mDA neuron cell death” value (mDA neurons; concentrations at 1 and 3 μM, compared with cortical neurons) was “significant mDA neuron cell death” and the “decrease of total cell number in DA neuron cultures” value (mDA neurons; propargite 1 µM, 3 µM) was 40-60%. The “sensitivity of GSTT1-/- hESC-derived mDA neurons vs GSTT1+/+ or GSTM1-/-” value (mDA neurons; propargite 3 μM, FOXA2+ cells) was “more sensitive”, the “cell death rate (TUNEL) of EndoC-βH1-Luc cells carrying sgGSTT1 vs sgGFP” value (EndoC-βH1-Luc cells; day 3) was “higher cell death rate” and the “luciferase signal of EndoC-βH1-Luc cells” value (EndoC-βH1-Luc cells; day 3) was “slower rate increase”. The “luciferase signal of EndoC-βH1-Luc cells” value (EndoC-βH1-Luc cells; day 5) was “marked decrease” and the IC50 (GSTT1-/- INS+ cells) was 1.17 µM.

Source: paper PMC6240096, “A hPSC-based platform to discover gene-environment interactions that impact human β-cell and dopamine neuron survival” (Nature Communications, 2018)
